Experiment: xn = mol fraction of the nth substance listed
Settings: Fluid (supercritical or subcritical phases), Buoyancy - hydrostatic balance with magnetic suspension - one sinker, x2 = 0.95

C [methane] + O=C=O
Settings | mass density [kg/m3]
305.16 K, 9767.1 kPa | 617.141
305.16 K, 9967.5 kPa | 629.726
305.17 K, 9370.3 kPa | 584.841
306.1 K, 7971 kPa | 291.729
306.14 K, 8569.3 kPa | 407.211
306.15 K, 8769.4 kPa | 456.137
306.15 K, 9367.9 kPa | 559.009
306.15 K, 9567.4 kPa | 580.099
306.15 K, 9767.6 kPa | 597.343
306.16 K, 9168.1 kPa | 532.249
306.17 K, 8170.1 kPa | 321.108
306.17 K, 8969 kPa | 498.232
306.17 K, 9967.5 kPa | 611.559
306.18 K, 8370.6 kPa | 359.348
307.11 K, 7970.8 kPa | 279.021
307.15 K, 8769.2 kPa | 417.545
307.15 K, 9369.4 kPa | 530.475
307.15 K, 9968.3 kPa | 592.558
307.16 K, 8569.4 kPa | 373.594
307.16 K, 9769.9 kPa | 575.499
307.17 K, 8370.1 kPa | 335.111
307.17 K, 9567.7 kPa | 554.846
307.18 K, 8170.2 kPa | 303.687
307.18 K, 8969.6 kPa | 460.414
307.19 K, 9168.1 kPa | 498.151
308.14 K, 7971.8 kPa | 268.365
308.15 K, 8969.6 kPa | 425.843
308.16 K, 8773.5 kPa | 385.91
308.16 K, 9568.1 kPa | 527.899
308.16 K, 9772 kPa | 552.011
308.16 K, 9967.3 kPa | 570.979
308.17 K, 8171.2 kPa | 290.106
308.17 K, 8372.6 kPa | 316.707
308.17 K, 9169 kPa | 464.65
308.17 K, 9368.5 kPa | 499.11
308.18 K, 8570.3 kPa | 347.84
309.13 K, 7972 kPa | 259.723
309.15 K, 8969.7 kPa | 395.876
309.15 K, 9967.3 kPa | 548.766
309.16 K, 9568.6 kPa | 499.83
309.16 K, 9768.9 kPa | 526.36
309.17 K, 8171 kPa | 279.024
309.17 K, 8570.8 kPa | 328.632
309.17 K, 8772.2 kPa | 360.359
309.17 K, 9170.1 kPa | 432.906
309.17 K, 9369 kPa | 468.272
309.18 K, 8371.4 kPa | 301.81
310.13 K, 7971.6 kPa | 252.206
310.15 K, 9168.8 kPa | 404.887
310.15 K, 9768.4 kPa | 500.279
310.16 K, 9368.7 kPa | 438.984
310.17 K, 8169.9 kPa | 269.525
310.17 K, 8371.3 kPa | 289.994
310.17 K, 8570.5 kPa | 313.293
310.17 K, 8969.4 kPa | 370.784
310.17 K, 9568.2 kPa | 470.935
310.17 K, 9969.4 kPa | 524.504
310.18 K, 8771.3 kPa | 340.177
311.13 K, 7972.7 kPa | 245.539
311.15 K, 8969.4 kPa | 351.047
311.16 K, 9169.2 kPa | 380.674
311.17 K, 8170.7 kPa | 261.395
311.17 K, 8372.1 kPa | 279.845
311.17 K, 8571.3 kPa | 300.517
311.17 K, 9768.1 kPa | 473.276
311.17 K, 9967.8 kPa | 499.737
311.18 K, 9568.6 kPa | 443.32
311.19 K, 8770.5 kPa | 323.691
311.19 K, 9369 kPa | 411.617
312.13 K, 7972.4 kPa | 239.656
312.17 K, 8771.1 kPa | 310.807
312.17 K, 9568.6 kPa | 418.783
312.17 K, 9768.9 kPa | 448.071
312.17 K, 9967.7 kPa | 475.106
312.18 K, 8571.5 kPa | 289.726
312.18 K, 9169.8 kPa | 360.525
312.19 K, 8172.7 kPa | 254.332
312.19 K, 8372.2 kPa | 270.995
312.19 K, 8970.5 kPa | 334.208
312.19 K, 9369.6 kPa | 388.871
313.14 K, 7973.3 kPa | 234.195
313.17 K, 8571.8 kPa | 280.559
313.17 K, 8771.6 kPa | 299.532
313.17 K, 8970.6 kPa | 320.608
313.17 K, 9170.2 kPa | 344.172
313.17 K, 9369.7 kPa | 369.68
313.17 K, 9768.4 kPa | 424.626
313.18 K, 8171.5 kPa | 247.96
313.18 K, 8372.5 kPa | 263.421
313.18 K, 9569.1 kPa | 396.668

Reference: the NIST ThermoML archive (doi:10.1016/j.fluid.2015.08.029)
